A short description of data set [1]: Volume of distribution at steady state in CD-1 mouse at 1 mg/kg, iv measured after 24 hrs by LC-MS/MS analysis. The format is ADME, organism-based. As to conditions: in vivo, read-out: Vdss.
In data set [2] the target is Cyclin-dependent kinase 9 (Homo sapiens) (UniProt P50750). In words: Induction of CDK9 55 kDa degradation in human U2932 cells at 100 nM by immunoblotting analysis. As to conditions: time 1-24 hrs, TDE = time-dependent effect. It is filed as cell-based. A general note: A western blot detects proteins with antibodies after separation by electrophoresis.
Chain of Cyclin-dependent kinase 9 (Homo sapiens) (P50750 whole entry, the tested form may be a part): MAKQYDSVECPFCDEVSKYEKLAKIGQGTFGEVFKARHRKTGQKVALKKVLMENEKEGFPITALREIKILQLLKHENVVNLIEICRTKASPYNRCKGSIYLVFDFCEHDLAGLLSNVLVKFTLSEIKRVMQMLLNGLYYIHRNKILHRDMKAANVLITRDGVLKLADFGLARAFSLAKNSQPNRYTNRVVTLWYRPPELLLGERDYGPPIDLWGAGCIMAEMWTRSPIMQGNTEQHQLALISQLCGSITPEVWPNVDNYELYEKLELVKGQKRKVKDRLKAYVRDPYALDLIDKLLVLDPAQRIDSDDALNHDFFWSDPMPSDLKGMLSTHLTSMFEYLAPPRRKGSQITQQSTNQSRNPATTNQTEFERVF
Data set [3] shares this target. Nature of the data set: Inhibition of GST-fused human full-length CDK9 (1 to 372(end) residues)/N-terminal GST-fused His-tagged human full-length CyclinT1 (1 to 726(end) residues) expressed in baculovirus expression system at 100 nM using CDK7/9 tide as substrate incubated for 120 mins in presence of ATP by ADP-Glo Kinase assay relative to control. On the technique in general: ADP-Glo turns the ADP formed in a reaction into a luminescent signal.

Data set [4] relates to MV4-11. In words: Downregulation of c-Myc protein level in human MV4-11 cells incubated for 6 hrs by RT-qPCR analysis. The format is functional, cell-based. As to conditions: dose 10-1000 nM. On the technique in general: Quantitative PCR measures a nucleic acid by following its amplification.
The next data set has as its system U2932. Nature of the data set: Induction of LC3B […] in human U2932 cells at 500 nM incubated for 12 hrs in presence of BafA1 by Co-immunoprecipitation analysis. The format is cell-based.
The nature of data set [5]: AUC(0 to t) in CD-1 mouse at 5 mg/kg, ip measured after 24 hrs by LC-MS/MS analysis. The format is ADME, organism-based. Details: dose 5 mg/kg, time 24 hrs, route ip. As to conditions: in vivo.
The subject of data set [6] is MV4-11. In words: Antitumor activity against human MV4-11 cells xenografted in mouse assessed as reduction in c-Myc level in tumor at 5 mg/kg, ip qd measured after 15 days by immunoblotting analysis. It is filed as functional, organism-based. As to conditions: time 15.0 day.
Data set [7] is described as follows: Oral bioavailability in CD-1 mouse at 5 mg/kg measured after 24 hrs by LC-MS/MS analysis. It is filed as ADME, organism-based. To be noted: in vivo.
Data set [8] deals with MV4-11. In words: Antitumor activity against human MV4-11 cells xenografted in mouse assessed as reduction in CDK9 level in tumor at 5 mg/kg, ip qd measured after 15 days by immunoblotting analysis. The format is functional, organism-based. As to conditions: time 15.0 day.
Data set [9] in a line: Toxicity in mouse xenografted with human MV4-11 cells assessed as change in body weight at 5 mg/kg, ip qd measured after 15 days. It is filed as organism-based. As to conditions: in vivo, 360 h, time 15 day.
Data set [10] has as its system MV4-11. In words: Antitumor activity against human MV4-11 cells xenografted in mouse assessed as reduction in Mcl level in tumor at 5 mg/kg, ip qd measured after 15 days by immunoblotting analysis. To be noted: time 15.0 day. The format is functional, organism-based.
For another data set, the system named is HCT-8. In words: Cytotoxicity against human HCT-8 cells assessed as inhibition of cell growth measured after 72 hrs by CCK-8 assay. The format is functional, cell-based.
Data set [11] concerns MV4-11. In words: Antitumor activity against human MV4-11 cells xenografted in mouse assessed as reduction in tumor growth at 5 mg/kg, ip qd measured after 15 days. The format is functional, organism-based. As to conditions: time 15.0 day.
A short description of data set [12]: Half life in CD-1 mouse at 1 mg/kg, iv measured after 24 hrs by LC-MS/MS analysis. It is filed as ADME, organism-based. To be noted: in vivo.
Data set [13] concerns MV4-11. In words: Antitumor activity against human MV4-11 cells xenografted in mouse assessed as tumor growth inhibition at 5 mg/kg, ip qd measured after 15 days. It is filed as functional. To be noted: MV4-11, 360 h, time 15 day, read-out: TGI.
In data set [14] the target is Cyclin-dependent kinase 9 (Homo sapiens) (UniProt P50750). Nature of the data set: Induction of CDK9 42 kDa degradation in human U2932 cells at 500 nM incubated for 12 hrs in presence of HCQ by immunoblotting analysis. The format is cell-based.
The target is the same in data set [15]. Nature of the data set: Induction of CDK9 42 kDa degradation in human U2932 cells assessed as maximal efficacy at 1 to 1000 nM by immunoblotting analysis relative to control. The format is cell-based. As to conditions: dose 1-1000 nM.
For the next data set, the system named is A2780. In words: Cytotoxicity against human A2780 cells assessed as inhibition of cell growth measured after 72 hrs by CCK-8 assay. The format is functional, cell-based.
Data set [16] addresses Cyclin-dependent kinase 1 (Homo sapiens) (UniProt P06493). In words: Induction of CDK1 degradation in human U2932 cells at 100 nM incubated for 24 hrs by immunoblotting analysis. The format is cell-based.
Data set [17] has as its target CDK9/cyclin T1 (Homo sapiens) (UniProt O60563+P50750). In words: Induction of CDK9/CyclinT1 degradation in human U2932 cells at 100 nM measured after 24 hrs by immunoblotting analysis. The format is cell-based.

Calls of active or inactive are those of the source.

These results are taken from ChEMBL document CHEMBL5365461, “Degradation of Cyclin-Dependent Kinase 9/Cyclin T1 by Optimized Microtubule-Associated Protein 1 Light Chain 3 Beta-Recruiting Coumarin Analogs” (J Med Chem, 2023).

A word on the inhibition: it is how much of the control response was suppressed. The term AUC(0-t) denotes the area under the concentration-time curve up to a stated or last time point. High values mean more exposure, low ones less exposure. In general, bioavailability refers to the share of a dose that reaches the circulation, judged against a reference dose that is usually intravenous. Broadly, the half-life is the time needed for the level to fall by half in the phase considered. Read a high half-life as slow decline. One may read the Emax as the maximal effect, on the per cent scale that the assay sets.

Chain of Cyclin-dependent kinase 1 (Homo sapiens) (P06493 whole entry, looked up): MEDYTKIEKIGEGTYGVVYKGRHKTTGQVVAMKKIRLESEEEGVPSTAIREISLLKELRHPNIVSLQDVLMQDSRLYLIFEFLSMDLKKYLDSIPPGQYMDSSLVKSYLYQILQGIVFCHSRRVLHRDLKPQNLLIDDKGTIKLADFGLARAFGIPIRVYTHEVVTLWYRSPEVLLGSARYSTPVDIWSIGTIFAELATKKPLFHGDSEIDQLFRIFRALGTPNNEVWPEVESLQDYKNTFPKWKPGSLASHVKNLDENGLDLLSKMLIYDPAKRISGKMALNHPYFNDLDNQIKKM

Consider `Cc1cc(=O)oc2cc(O)cc(OCCCCCN3CCC(C(=O)Nc4ncc(SCc5ncc(C(C)(C)C)o5)s4)CC3)c12`, for which the Vd in data set [1] turned out to be 10.5 L/kg. The Activity result in data set [2] is “Tde”; with MV4-11 [4] it was “Dose-Dependent Effect”; in [9], “Non-Toxic”. The inhibition in data set [3] is 54%. For the same molecule, the result in the data set with U2932, in the data set on MV4-11 [6], with MV4-11 [8], with MV4-11 [10], in the data set on HCT-8 and in the data set with MV4-11 [11] was Active. For the same molecule, the outcome in the data set with A2780 was Active. Moreover, the exposure AUC(0-t) at 24 h in data set [5] came to 156 ng·h/mL. In addition, in [7], the bioavailability was 43.1%. This molecule also had a half-life in data set [12] of 1.97 h. In addition, the inhibition in vivo at 5 mg/kg in the data set on MV4-11 [13] was found to be 52%. Besides, the outcome in [14] was inactive. Also, the Emax in data set [15] stood at 59%.
As for `Cc1cc(=O)oc2cc(OCCCN3CCC(C(=O)Nc4ncc(SCc5ncc(C(C)(C)C)o5)s4)CC3)cc(O)c12`, in data set [1], the Vd was found to be 5.7 L/kg. The outcome (in [16]; in data set [17]; with U2932; in the data set with HCT-8; with A2780) was Active. Besides, the Activity result in data set [2] is “Tde”; in the data set with MV4-11 [4] it was “Dose-Dependent Effect”. In addition, the inhibition in [3] is 65%. The same molecule displayed an area under the curve AUC(0-t) at 24 h in data set [5] of 143 ng·h/mL. Further, the bioavailability in data set [7] stood at 24.6%. Moreover, in data set [12], the half-life was 1.03 h. For the same molecule, in [14], the result was inactive. The maximal effect (Emax) in data set [15] was determined as 49.9%.
